Measurements: patent publication US8101760B2, “Glucocorticoid receptor modulator and methods of use” (Eli Lilly and Company, priority 2007, dated 2012)

Columns and labels:
[1] = In vivo studies of genotoxic potential
[2] = system: serum osteocalcin; assay: Serum osteocalcin assay; assay type: in vivo, mouse; conditions: mice, oral, seven days; 1 mg/kg/day Compound (I) vs 10 mg/kg/day prednisolone; mean of 6
From the text: Bone loss/osteoporosis and the resulting increased risk of fracture is a common and significant adverse effect that results from glucocorticoid therapy. Glucocorticoid induced osteoporosis is believed to result, at least in part, from an inhibition of bone formation. The measurement of serum osteocalcin, a biological marker of bone synthesis, is a recognized tool for assessing the adverse effects of glucocorticoid therapy on bone. (see Pearce et al., J. Clin. Endocrino. Metab. 83: 801-806, (1998)).
To assess the effects of Compound (I) on bone formation, Compound (I) is formulated in a vehicle comprising 5% carboxymethyl cellulose and 0.25% Tween 80 and administered orally via gavage to sixteen week old male Swiss-Web mice (Harlan Industries, Indianapolis, Ind.) for seven days. For comparison, prednisolone is administered orally in the same vehicle. Serum is collected 24 hours after the last dose and osteocalcin levels are determined using a competitive radioimmunoassay (RIA) kit (Biomedical Technologies, Inc., Stoughton, Mass.) modified to a 96 well format. […] The filters are punched and the radioactivity quantitated on a gamma counter (Cobra II, Packard Instruments, Meriden, Conn.). Radioactivity detected on the filters from test samples is inversely proportional to serum osteocalcin concentration. […]

[3] = biological target: T1, human progesterone receptor (PR) (Homo sapiens, UniProt P06401); assay: Nuclear hormone receptor functional modulation assay (GRE-luciferase, HEK293), PR; assay type: cell-based
T1 construct: expressed in transfected cells; host or cells: HEK293, transient transfection (Fugene), CMV promoter plasmid
T1 sequence (P06401 1-933): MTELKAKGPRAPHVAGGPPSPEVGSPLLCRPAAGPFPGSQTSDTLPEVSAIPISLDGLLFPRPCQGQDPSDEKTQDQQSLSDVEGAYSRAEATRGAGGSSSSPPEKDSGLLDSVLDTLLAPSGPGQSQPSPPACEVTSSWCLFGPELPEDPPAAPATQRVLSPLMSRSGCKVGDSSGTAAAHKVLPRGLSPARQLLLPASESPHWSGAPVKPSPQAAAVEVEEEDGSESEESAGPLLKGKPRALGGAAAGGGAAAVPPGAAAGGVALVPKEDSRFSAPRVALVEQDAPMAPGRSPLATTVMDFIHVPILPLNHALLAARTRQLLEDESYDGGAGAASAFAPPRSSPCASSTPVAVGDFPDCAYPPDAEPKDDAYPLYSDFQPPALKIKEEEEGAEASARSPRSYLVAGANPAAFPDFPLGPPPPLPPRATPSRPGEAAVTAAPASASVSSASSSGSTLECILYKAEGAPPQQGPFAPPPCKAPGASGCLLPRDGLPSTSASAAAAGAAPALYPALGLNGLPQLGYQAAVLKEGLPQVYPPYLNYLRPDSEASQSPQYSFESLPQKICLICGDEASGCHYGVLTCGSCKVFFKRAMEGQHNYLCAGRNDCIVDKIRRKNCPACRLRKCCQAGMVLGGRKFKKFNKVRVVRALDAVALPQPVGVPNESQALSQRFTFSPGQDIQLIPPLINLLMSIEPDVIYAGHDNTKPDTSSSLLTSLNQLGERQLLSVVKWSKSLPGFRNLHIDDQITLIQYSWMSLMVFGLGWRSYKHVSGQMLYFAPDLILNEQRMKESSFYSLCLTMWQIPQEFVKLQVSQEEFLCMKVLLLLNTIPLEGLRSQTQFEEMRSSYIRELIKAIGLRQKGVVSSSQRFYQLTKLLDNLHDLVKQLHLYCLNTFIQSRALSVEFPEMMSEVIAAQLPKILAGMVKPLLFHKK
From the text: The solvents, reagents, and ligands employed in the functional assay are readily available from commercial sources, or can be prepared by one of ordinary skill in the art.
Human embryonic kidney HEK293 cells are transfected with steroid hormone receptor and reporter gene plasmids using Fugene™ (Roche Diganostics) transfection reagent. Briefly, the reporter plasmid containing two copies of probasin ARE (androgen response element 5′GGTTCTTGGAGTACT3′ (SEQ ID NO:1)) and TK(thymidine kinase) promoter upstream of the luciferase reporter cDNA, is transfected into HEK293 cells with a plasmid constitutively expressing human androgen receptor (AR) using viral CMV(cytomegalovirus) promoter. The reporter plasmid containing two copies of GRE (glucocorticoid response element 5′TGTACAGGATGTTCT′3 (SEQ ID NO:2)) and TK promoter upstream of the luciferase reporter cDNA is transfected with a plasmid constitutively expressing either human glucocorticoid receptor (GR), human mineralocorticoid receptor (MR), or human progesterone receptor (PR) using viral CMV promoter. Cells are transfected in T150 cm flasks in DMEM media with 5% charcoal-stripped Fetal Bovine Serum (FBS). […] In the antagonist mode for the assays, low concentrations of agonist for each respective receptor are added to the media (0.25 nM dexamethasone for GR, 0.3 nM of methyltrienolone for AR, 0.05 nM of promegestone for PR and 0.05 nM aldosterone for MR), and the ability of test compound to antagonize the agonist response is determined. After 24 hours of incubation with test compounds, cells are lysed and luciferase activity is determined using standard techniques.
Data are fitted to a four parameter-fit logistic curve fit to determine EC50 values. […] IC50 values may be determined similarly using antagonist mode assay data. Percent inhibitions may also be determined relative to the response in the presence of agonist alone, as described above.

CC/C(=C1\c2ccc(Cl)cc2OCc2ncccc21)c1cccc(NS(C)(=O)=O)c1 [Compound (I), (E)-N-{3-[1-(8-Chloro-11H-10-oxa-1-aza-dibenzo[a,d]cyclohepten-5-ylidene)-propyl]-phenyl}-methanesulfonamide]
genotoxic potential [1]: non-genotoxic | reduction in serum osteocalcin levels compared with prednisolone [2]: less reduction | EC50 ([3]; agonist mode, activating transcription): > 10 µM | modulation of gene expression mediated by PR ([3]; functional modulation, in words): only limited activity | PR % Eff. ([3]; percent efficacy at 10 μM relative to 30 nM promegestone, mean of 3): 40.1%
